From patent US20070264355A1, “BINARY COMPOSITIONS AND METHODS FOR STERILIZATION” (Binary, LLC, priority 2005, published 2007)
“And” between values parts separate entries of the source, which are not always exact repeats. Equal entries are not always repeated.

System: Staphylococcus aureus (ATCC 6538)
Test: Microbicidal activity against Staphylococcus aureus (suspension test, surviving CFU)
Assay type: cell-based
Experimental: Bacterial suspensions, specifically Staphylococcus aureus (ATCC 6538) in this example, were prepared by the shake flask method to achieve late log to early stationary phase growth. Bacteria were grown 24 hours in trypticase soy broth (TSB) at 35° C. The cultures were centrifuged at 4,000 rpm for 10 minutes and the supernatants removed. The pellet was collected and washed twice with sterile 0.9% normal saline. The washed microorganisms were suspended and diluted with normal saline to a 3 McFarland standard, i.e., approximately 10^9 bacteria colony forming units (CFU) per ml. Actual colony counts are confirmed by serial dilutions (10^−1 to 10^−5 or 10^−6) plated on trypticase soy agar (TSA) and incubated overnight at 35° C. One hundred microliters of organisms from a stock of 10^7 CFU/ml were used to obtain an approximate final working target inoculum of 10^6 CFU. The microbicidal test is conducted in a vial containing 1.4 ml of final reaction mixture after neutralization.
Each solution was used alone for the individual controls. Organism suspensions were used to achieve a final target concentration of 2-3×10^6 CFU per ml. For the binary system treatments, sodium hypochlorite solution and hydrogen peroxide solution, non-acidified or acidified, were sequentially added to the microorganisms. Acidified hydrogen peroxide solution was obtained by the addition of 1.0% v/v of 0.001 N hydrochloride solution. After each addition, the resulting mixture was allowed to remain in contact with the organisms for a set amount of time at room temperature (about 22° C.), as listed in the Tables 1 and 2. At the end of the treatment time, the mixtures were neutralized with 200 to 500 microliters of thiosulfate solution (2.4%) to quench the activity of sodium hypochlorite and then treated with 100 to 200 microliters of a 1% catalase solution, containing a minimum of 100 units/ul, to quench the hydrogen peroxide activity. If needed, an appropriate volume of sterile saline was added to bring the final volume of reaction mixture to 1.4 ml after neutralization. Serial dilution plate counts were performed from the contents of each vial in sterile saline and inoculated onto TSA for quantitative culture. Plates were then incubated at 37° C. and counts taken at 24 hours.
After an additional 30 minutes, the binary system mixture was then neutralized using 2.4% thiosulfate followed by 1% catalase as described in the Methods Section.

[1] = NaOCl 0.02 mM 15 min, then saline 30 min, inoculum 2530000 CFU
[2] = NaOCl 0.02 mM 15 min, inoculum 2500000 CFU
[3] = NaOCl 0.02 mM 15 min, inoculum 2530000 CFU
[4] = NaOCl 0.03 mM 15 min, then saline 30 min, inoculum 2530000 CFU
[5] = NaOCl 0.03 mM 15 min, inoculum 2500000 CFU
[6] = NaOCl 0.03 mM 15 min, inoculum 2530000 CFU
[7] = NaOCl 0.04 mM 15 min, then saline 30 min, inoculum 2530000 CFU
[8] = NaOCl 0.04 mM 15 min, inoculum 2500000 CFU
[9] = NaOCl 0.04 mM 15 min, inoculum 2530000 CFU
[10] = NaOCl 0.05 mM 15 min, then saline 30 min, inoculum 2530000 CFU
[11] = NaOCl 0.05 mM 15 min, inoculum 2530000 CFU
[12] = NaOCl 0.06 mM 15 min, then saline 30 min, inoculum 2530000 CFU
[13] = NaOCl 0.06 mM 15 min, inoculum 2530000 CFU
[14] = NaOCl 0.07 mM 5 min, inoculum 1600000 CFU
[15] = NaOCl 0.07 mM 15 min, then saline 30 min, inoculum 2530000 CFU
[16] = NaOCl 0.07 mM 15 min, inoculum 1600000 CFU
[17] = NaOCl 0.07 mM 15 min, inoculum 2530000 CFU
[18] = NaOCl 0.07 mM 30 min, inoculum 1600000 CFU
[19] = NaOCl 0.71 mM 5 min, inoculum 1600000 CFU
[20] = NaOCl 0.71 mM 15 min, inoculum 1600000 CFU
[21] = NaOCl 0.71 mM 30 min, inoculum 1600000 CFU
[22] = NaOCl 7.05 mM 5 min, inoculum 1600000 CFU
[23] = NaOCl 7.05 mM 15 min, inoculum 1600000 CFU
[24] = NaOCl 7.05 mM 30 min, inoculum 1600000 CFU
[25] = NaOCl 70.53 mM 5 min, inoculum 1600000 CFU
[26] = NaOCl 70.53 mM 15 min, inoculum 1600000 CFU
[27] = NaOCl 70.53 mM 30 min, inoculum 1600000 CFU
[28] = NaOCl 705.27 mM 5 min, inoculum 1600000 CFU
[29] = NaOCl 705.27 mM 15 min, inoculum 1600000 CFU
[30] = NaOCl 705.27 mM 30 min, inoculum 1600000 CFU

SMILES: [Na+].[O-]Cl [NaOCl, sodium hypochlorite]
- Log 10 (CFU + 1) Survivors [1]: 3.0
- Log Reduction [1]: 3.4
- Total Viability (CFU) [1]: 1092 CFU
- Log 10 (CFU + 1) Survivors [2]: 6.3
- Log Reduction [2]: 0.1 and 0.12
- Total Viability (CFU) [2]: 1890000 CFU
- Log 10 (CFU + 1) Survivors [3]: 3.1
- Log Reduction [3]: 3.3 and 3.29
- Total Viability (CFU) [3]: 1288 CFU
- Log 10 (CFU + 1) Survivors [4]: 2.4
- Log Reduction [4]: 4.0
- Total Viability (CFU) [4]: 260 CFU
- Log 10 (CFU + 1) Survivors [5]: 4.9
- Log Reduction [5]: 1.5 and 1.53
- Total Viability (CFU) [5]: 74200 CFU
- Log 10 (CFU + 1) Survivors [6]: 2.9
- Log Reduction [6]: 3.5 and 3.51
- Total Viability (CFU) [6]: 784 CFU
- Log 10 (CFU + 1) Survivors [7]: 1.3
- Log Reduction [7]: 5.1
- Total Viability (CFU) [7]: 18 CFU
- Log 10 (CFU + 1) Survivors [8]: 2.8
- Log Reduction [8]: 3.6 and 3.61
- Total Viability (CFU) [8]: 616 CFU
- Log 10 (CFU + 1) Survivors [9]: 2.2
- Log Reduction [9]: 4.2 and 4.18
- Total Viability (CFU) [9]: 167 CFU
- Log 10 (CFU + 1) Survivors [10]: 1.1
- Log Reduction [10]: 5.3
- Total Viability (CFU) [10]: 13 CFU
- Log 10 (CFU + 1) Survivors [11]: 1.3
- Log Reduction [11]: 5.1 and 5.15
- Total Viability (CFU) [11]: 17 CFU
- Log 10 (CFU + 1) Survivors [12]: 0.9
- Log Reduction [12]: 5.5
- Total Viability (CFU) [12]: 7 CFU
- Log 10 (CFU + 1) Survivors [13]: 0.0
- Log Reduction [13]: 6.4
- Total Viability (CFU) [13]: 0 CFU
- Log 10 (CFU + 1) Survivors [14]: 0.7
- Log Reduction [14]: 5.5
- Total Viability (CFU) [14]: 4 CFU
- Total Viability (CFU) (NaOCl 0.07 mM 5 min, inoculum 1600000 CFU, listed as sodium hypochlorite): four
- Log 10 (CFU + 1) Survivors [15]: 0.0
- Log Reduction [15]: 6.4
- Total Viability (CFU) [15]: 0 CFU
- Log 10 (CFU + 1) Survivors [16]: 0.9
- Log Reduction [16]: 5.3
- Total Viability (CFU) [16]: 7 CFU
- Total Viability (CFU) (NaOCl 0.07 mM 15 min, inoculum 1600000 CFU, listed as sodium hypochlorite): seven
- Log 10 (CFU + 1) Survivors [17]: 0.0
- Log Reduction [17]: 6.4
- Total Viability (CFU) [17]: 0 CFU
- Log 10 (CFU + 1) Survivors [18]: 0.0
- Log Reduction [18]: 6.2
- Total Viability (CFU) [18]: 0 CFU
- Log 10 (CFU + 1) Survivors [19]: 0.0
- Log Reduction [19]: 6.2
- Total Viability (CFU) [19]: 0 CFU
- Log 10 (CFU + 1) Survivors [20]: 0.0
- Log Reduction [20]: 6.2
- Total Viability (CFU) [20]: 0 CFU
- Log 10 (CFU + 1) Survivors [21]: 0.0
- Log Reduction [21]: 6.2
- Total Viability (CFU) [21]: 0 CFU
- Log 10 (CFU + 1) Survivors [22]: 0.0
- Log Reduction [22]: 6.2
- Total Viability (CFU) [22]: 0 CFU
- Log 10 (CFU + 1) Survivors [23]: 0.0
- Log Reduction [23]: 6.2
- Total Viability (CFU) [23]: 0 CFU
- Log 10 (CFU + 1) Survivors [24]: 0.0
- Log Reduction [24]: 6.2
- Total Viability (CFU) [24]: 0 CFU
- Log 10 (CFU + 1) Survivors [25]: 0.0
- Log Reduction [25]: 6.2
- Total Viability (CFU) [25]: 0 CFU
- Log 10 (CFU + 1) Survivors [26]: 0.0
- Log Reduction [26]: 6.2
- Total Viability (CFU) [26]: 0 CFU
- Log 10 (CFU + 1) Survivors [27]: 0.0
- Log Reduction [27]: 6.2
- Total Viability (CFU) [27]: 0 CFU
- Log 10 (CFU + 1) Survivors [28]: 0.0
- Log Reduction [28]: 6.2
- Total Viability (CFU) [28]: 0 CFU
- Log 10 (CFU + 1) Survivors [29]: 0.0
- Log Reduction [29]: 6.2
- Total Viability (CFU) [29]: 0 CFU
- Log 10 (CFU + 1) Survivors [30]: 0.0
- Log Reduction [30]: 6.2
- Total Viability (CFU) [30]: 0 CFU
